Data: patent US20260140098A1, “METHOD FOR TREATING PLASMA SAMPLE CONTAINING (7aS,2'S)-2-OXO-CLOPIDOGREL AND METHOD FOR DETERMINING THE SAME” (CHENGDU SHIBEIKANG BIOMEDICAL TECHNOLOGY CO., LTD., priority 2021, published 2026)

Assay: Stability of (7aS,2′S)-2-oxo-clopidogrel in plasma, screening of TCEP dosage (Example 4)
Format: in vitro ADME
Experimental: S2. Plasma sample pre-treatment: taking 100 μl of the plasma, adding 5 μl of an internal standard working solution and 300 μl of acetonitrile respectively; after vortex mixing, centrifuging at 2-8° C. and 10,000 r/min for 10 min, and collecting the supernatant for later use.
S3. LC-MS/MS analysis: injecting 10 μl of the supernatant prepared from step S2 for determination, where the liquid chromatography conditions are: • the chromatographic column is Kinetex® 1.7 μm C18 100 A 100×2.1 mm; the column temperature is 40° C.; the mobile phase is acetonitrile-0.2% aqueous formic acid solution with a flow rate of 0.2 ml/min; and a gradient elution is carried out as specified in the table below:
ESI ion source, positive ion detection in multiple reaction monitoring mode (MRM); the quantitatively analyzed ions (7aS,2′S)-2-oxo-clopidogrel: m/z 338.100→155.000, IS: m/z 341.100→158.000, a capillary voltage of 4.0 KV, a cone voltage of 25 V, a desolvation gas temperature of 400° C. and a source temperature of 150° C. The optimal collision energy is 20 eV.
Blank plasma was taken and TCEP was added to prepare plasma containing TCEP at different concentrations (10, 50, 100 mg/ml). Subsequently, standard series solution of (7aS,2′S)-2-oxo-clopidogrel was added separately to prepare quality control samples with two concentrations of (7aS,2′S)-2-oxo-clopidogrel (0.1 and 12.0 ng/ml), 3 samples for each concentration. They were placed at room temperature and on ice, respectively, and the plasma samples at different placing time points were taken to examine the stability by pre-treating the plasma samples according to the method of S2 of Example 1, followed by LC/MS/MS determination according to the method of S3.

Measured concentration (No TCEP, theoretical 0.1 ng/mL, on ice, 0 min): 0.0965 ng/mL | Measured concentration (No TCEP, theoretical 0.1 ng/mL, on ice, 30 min): 0.0842 ng/mL | Measured concentration (No TCEP, theoretical 0.1 ng/mL, on ice, 60 min): 0.0763 ng/mL | Measured concentration (No TCEP, theoretical 0.1 ng/mL, on ice, 120 min): 0.0622 ng/mL | Measured concentration (No TCEP, theoretical 0.1 ng/mL, room temperature, 0 min): 0.0965 ng/mL | Measured concentration (No TCEP, theoretical 0.1 ng/mL, room temperature, 30 min): 0.0782 ng/mL | Measured concentration (No TCEP, theoretical 0.1 ng/mL, room temperature, 60 min): 0.0633 ng/mL | Measured concentration (No TCEP, theoretical 0.1 ng/mL, room temperature, 120 min): 0.0529 ng/mL | Measured concentration (No TCEP, theoretical 12.0 ng/mL, on ice, 0 min): 12.3 ng/mL | Measured concentration (No TCEP, theoretical 12.0 ng/mL, on ice, 30 min): 10.3 ng/mL | Measured concentration (No TCEP, theoretical 12.0 ng/mL, on ice, 60 min): 9.65 ng/mL | Measured concentration (No TCEP, theoretical 12.0 ng/mL, on ice, 120 min): 7.23 ng/mL | Measured concentration (No TCEP, theoretical 12.0 ng/mL, room temperature, 0 min): 12.3 ng/mL | Measured concentration (No TCEP, theoretical 12.0 ng/mL, room temperature, 30 min): 9.45 ng/mL | Measured concentration (No TCEP, theoretical 12.0 ng/mL, room temperature, 60 min): 8.38 ng/mL | Measured concentration (No TCEP, theoretical 12.0 ng/mL, room temperature, 120 min): 6.57 ng/mL | Measured concentration (TCEP 10 mg/ml, theoretical 0.1 ng/mL, on ice, 0 min): 0.0965 ng/mL | Measured concentration (TCEP 10 mg/ml, theoretical 0.1 ng/mL, on ice, 30 min): 0.0942 ng/mL | Measured concentration (TCEP 10 mg/ml, theoretical 0.1 ng/mL, on ice, 60 min): 0.0863 ng/mL | Measured concentration (TCEP 10 mg/ml, theoretical 0.1 ng/mL, on ice, 120 min): 0.0782 ng/mL | Measured concentration (TCEP 10 mg/ml, theoretical 0.1 ng/mL, room temperature, 0 min): 0.0965 ng/mL | Measured concentration (TCEP 10 mg/ml, theoretical 0.1 ng/mL, room temperature, 30 min): 0.0952 ng/mL | Measured concentration (TCEP 10 mg/ml, theoretical 0.1 ng/mL, room temperature, 60 min): 0.0833 ng/mL | Measured concentration (TCEP 10 mg/ml, theoretical 0.1 ng/mL, room temperature, 120 min): 0.0729 ng/mL | Measured concentration (TCEP 10 mg/ml, theoretical 12.0 ng/mL, on ice, 0 min): 12.3 ng/mL | Measured concentration (TCEP 10 mg/ml, theoretical 12.0 ng/mL, on ice, 30 min): 11.9 ng/mL | Measured concentration (TCEP 10 mg/ml, theoretical 12.0 ng/mL, on ice, 60 min): 10.65 ng/mL | Measured concentration (TCEP 10 mg/ml, theoretical 12.0 ng/mL, on ice, 120 min): 9.92 ng/mL | Measured concentration (TCEP 10 mg/ml, theoretical 12.0 ng/mL, room temperature, 0 min): 12.3 ng/mL | Measured concentration (TCEP 10 mg/ml, theoretical 12.0 ng/mL, room temperature, 30 min): 11.7 ng/mL | Measured concentration (TCEP 10 mg/ml, theoretical 12.0 ng/mL, room temperature, 60 min): 10.4 ng/mL | Measured concentration (TCEP 10 mg/ml, theoretical 12.0 ng/mL, room temperature, 120 min): 9.45 ng/mL | Measured concentration (TCEP 50 mg/ml, theoretical 0.1 ng/mL, on ice, 0 min): 0.0965 ng/mL | Measured concentration (TCEP 50 mg/ml, theoretical 0.1 ng/mL, on ice, 30 min): 0.0956 ng/mL | Measured concentration (TCEP 50 mg/ml, theoretical 0.1 ng/mL, on ice, 60 min): 0.0932 ng/mL | Measured concentration (TCEP 50 mg/ml, theoretical 0.1 ng/mL, on ice, 120 min): 0.0911 ng/mL | Measured concentration (TCEP 50 mg/ml, theoretical 0.1 ng/mL, room temperature, 0 min): 0.0965 ng/mL | Measured concentration (TCEP 50 mg/ml, theoretical 0.1 ng/mL, room temperature, 30 min): 0.0935 ng/mL | Measured concentration (TCEP 50 mg/ml, theoretical 0.1 ng/mL, room temperature, 60 min): 0.0914 ng/mL | Measured concentration (TCEP 50 mg/ml, theoretical 0.1 ng/mL, room temperature, 120 min): 0.0895 ng/mL | Measured concentration (TCEP 50 mg/ml, theoretical 12.0 ng/mL, on ice, 0 min): 12.3 ng/mL | Measured concentration (TCEP 50 mg/ml, theoretical 12.0 ng/mL, on ice, 30 min): 12.2 ng/mL | Measured concentration (TCEP 50 mg/ml, theoretical 12.0 ng/mL, on ice, 60 min): 11.9 ng/mL | Measured concentration (TCEP 50 mg/ml, theoretical 12.0 ng/mL, on ice, 120 min): 11.4 ng/mL | Measured concentration (TCEP 50 mg/ml, theoretical 12.0 ng/mL, room temperature, 0 min): 12.3 ng/mL | Measured concentration (TCEP 50 mg/ml, theoretical 12.0 ng/mL, room temperature, 30 min): 12.1 ng/mL | Measured concentration (TCEP 50 mg/ml, theoretical 12.0 ng/mL, room temperature, 60 min): 11.9 ng/mL | Measured concentration (TCEP 50 mg/ml, theoretical 12.0 ng/mL, room temperature, 120 min): 10.6 ng/mL | Measured concentration (TCEP 100 mg/ml, theoretical 0.1 ng/mL, on ice, 0 min): 0.0965 ng/mL | Measured concentration (TCEP 100 mg/ml, theoretical 0.1 ng/mL, on ice, 30 min): 0.0958 ng/mL | Measured concentration (TCEP 100 mg/ml, theoretical 0.1 ng/mL, on ice, 60 min): 0.0942 ng/mL | Measured concentration (TCEP 100 mg/ml, theoretical 0.1 ng/mL, on ice, 120 min): 0.0951 ng/mL | Measured concentration (TCEP 100 mg/ml, theoretical 0.1 ng/mL, room temperature, 0 min): 0.0965 ng/mL | Measured concentration (TCEP 100 mg/ml, theoretical 0.1 ng/mL, room temperature, 30 min): 0.0955 ng/mL | Measured concentration (TCEP 100 mg/ml, theoretical 0.1 ng/mL, room temperature, 60 min): 0.0934 ng/mL | Measured concentration (TCEP 100 mg/ml, theoretical 0.1 ng/mL, room temperature, 120 min): 0.0915 ng/mL | Measured concentration (TCEP 100 mg/ml, theoretical 12.0 ng/mL, on ice, 0 min): 12.3 ng/mL | Measured concentration (TCEP 100 mg/ml, theoretical 12.0 ng/mL, on ice, 30 min): 12.4 ng/mL | Measured concentration (TCEP 100 mg/ml, theoretical 12.0 ng/mL, on ice, 60 min): 12.1 ng/mL | Measured concentration (TCEP 100 mg/ml, theoretical 12.0 ng/mL, on ice, 120 min): 11.8 ng/mL | Measured concentration (TCEP 100 mg/ml, theoretical 12.0 ng/mL, room temperature, 0 min): 12.3 ng/mL | Measured concentration (TCEP 100 mg/ml, theoretical 12.0 ng/mL, room temperature, 30 min): 12.2 ng/mL | Measured concentration (TCEP 100 mg/ml, theoretical 12.0 ng/mL, room temperature, 60 min): 11.9 ng/mL | Measured concentration (TCEP 100 mg/ml, theoretical 12.0 ng/mL, room temperature, 120 min): 11.6 ng/mL | Stability in plasma (in words) (TCEP added at a concentration of 50 mg/ml or more): good stability
Structure (SMILES): COC(=O)[C@H](c1ccccc1Cl)N1CC[C@@H]2SC(=O)C=C2C1 [(7aS,2′S)-2-oxo-clopidogrel, methyl(S)-2-(2-chlorophenyl)-2-((S)-2-oxo-2,6,7,7a-tetrahydrothieno[3,2-c]pyridin-5 (4H)-yl)acetate]
